Motility data for 40 compounds are collected here from ChEMBL document CHEMBL3137381, “MMV Box Onchocerca lienalis screening set”.

What all share (assay type): functional
Assay [1] concerns Onchocerca lienalis. Description: MMV: Percent motility assay at a compound concentration of 1.25e-5 M. Activity score legend: 3: Active, 2: Moderately active; 1: Inactive, 0: Toxic. The following applies: at 12.5 µM.
Assay [2] has as its system Onchocerca lienalis. Description: MMV: Percent motility assay at a compound concentration of 3.1e-6 M. Activity score legend: 3: Active, 2: Moderately active; 1: Inactive, 0: Toxic. The following applies: at 3.1 µM.
In assay [3] the test system is Onchocerca lienalis. Put plainly: MMV: Percent motility assay at a compound concentration of 1.9e-7 M. Activity score legend: 3: Active, 2: Moderately active; 1: Inactive, 0: Toxic. The following applies: at 0.19 µM.
For assay [4], the system named is Onchocerca lienalis. Description: MMV: Percent motility assay at a compound concentration of 7.8e-7 M. Activity score legend: 3: Active, 2: Moderately active; 1: Inactive, 0: Toxic. The following applies: at 0.78 µM.

Regarding `CN(C)CCCNc1c2ccccc2nc2ccccc12`, the Motility in the assay with Onchocerca lienalis [1], in the assay with Onchocerca lienalis [2], in the assay with Onchocerca lienalis [3] and in the assay on Onchocerca lienalis [4] was 100% each time.

In the case of `COc1ccc(-c2c(C)nn3c(N)c(C#N)cnc23)cc1OC`, the Motility in the assay on Onchocerca lienalis [1], in the assay on Onchocerca lienalis [2], in the assay with Onchocerca lienalis [3] and in the assay on Onchocerca lienalis [4] was 100% in each case.

With `CSC1=NC(=Nc2c(C)cccc2C)C2(CCC(C(C)(C)C)CC2)N1c1ccc(Cl)cc1` (stereo not given), the Motility in the assay with Onchocerca lienalis [1], in the assay on Onchocerca lienalis [2], in the assay with Onchocerca lienalis [3] and in the assay with Onchocerca lienalis [4] was 100% each time.

For the compound `Cc1cc(C)cc(Nc2cc(C)nc3nc(C(F)(F)F)nn23)c1`, the Motility in the assay on Onchocerca lienalis [1], in the assay with Onchocerca lienalis [2], with Onchocerca lienalis [3] and in the assay with Onchocerca lienalis [4] was 100% throughout.

As for `O=C(NCC(c1ccsc1)N1CCCCCC1)c1ccc(C(F)(F)F)cc1` (stereo not given), the Motility in the assay on Onchocerca lienalis [1], in the assay with Onchocerca lienalis [2], with Onchocerca lienalis [3] and in the assay on Onchocerca lienalis [4] was 100% in each case.

Turning to `COc1ccc(-c2cc3c(SCC(=O)Nc4cc(C(F)(F)F)ccc4Cl)nccn3n2)cc1`, the Motility in the assay with Onchocerca lienalis [1], with Onchocerca lienalis [2], in the assay on Onchocerca lienalis [3] and with Onchocerca lienalis [4] was 100% in each case.

For `Cc1ccc(-c2cc3c(SCC(=O)Nc4cc(C(F)(F)F)ccc4Cl)nccn3n2)cc1`, the Motility with Onchocerca lienalis [1], in the assay with Onchocerca lienalis [2], in the assay on Onchocerca lienalis [3] and with Onchocerca lienalis [4] was 100% throughout.

`CCCCCC(=O)N1c2ccccc2N=C2CC(c3ccc(OC)c(OC)c3)CC(O)=C2C1c1ccc(C(F)(F)F)cc1` (stereo not given): the Motility with Onchocerca lienalis [1], with Onchocerca lienalis [2], in the assay with Onchocerca lienalis [3] and in the assay with Onchocerca lienalis [4] was 100% throughout.

Regarding `Cc1cc(Nc2ccc3ccccc3c2)n2ncnc2n1`, the Motility in the assay on Onchocerca lienalis [1], with Onchocerca lienalis [2], in the assay with Onchocerca lienalis [3] and with Onchocerca lienalis [4] was 100% in each case.

Regarding `Cc1cc(NCCN2CCCCC2)c2ccc3ccccc3c2n1`, the Motility in the assay on Onchocerca lienalis [1], with Onchocerca lienalis [2], in the assay with Onchocerca lienalis [3] and in the assay with Onchocerca lienalis [4] was 100% throughout.

Turning to `COc1ccc(-c2nc(NC(=O)CS(=O)(=O)c3ccc(F)cc3)sc2C)cc1`, the Motility with Onchocerca lienalis [1], in the assay with Onchocerca lienalis [2], in the assay with Onchocerca lienalis [3] and in the assay with Onchocerca lienalis [4] was 100% throughout.

Take `O=C(O)C1Cc2c([nH]c3ccccc23)C(c2ccc(Cl)cc2Cl)N1` (stereo not given): the Motility with Onchocerca lienalis [1], with Onchocerca lienalis [2], in the assay on Onchocerca lienalis [3] and in the assay on Onchocerca lienalis [4] was 100% each time.

For `Cc1ccc(N2C(=O)C3C(C2=O)C2(c4ccccc4)C(=O)C3(c3ccccc3)C(c3ccccc3)=C2c2ccccc2)cc1` (stereo not given), the Motility in the assay on Onchocerca lienalis [1], in the assay on Onchocerca lienalis [2], in the assay with Onchocerca lienalis [3] and with Onchocerca lienalis [4] was 100% in each case.

Regarding `CCc1c(C)c(=N)c2ccccc2n1C.I`, the Motility in the assay with Onchocerca lienalis [1], with Onchocerca lienalis [2], in the assay on Onchocerca lienalis [3] and with Onchocerca lienalis [4] was 100% each time.

In the case of `COc1cccc(NC(=O)[C@H](C(C)C)n2c(=O)[nH]c3ccccc3c2=O)c1`, the Motility with Onchocerca lienalis [1], in the assay with Onchocerca lienalis [2], with Onchocerca lienalis [3] and with Onchocerca lienalis [4] was 100% each time.

As to `CCOC(=O)c1cn(CC)c2cc(N(C)CCc3ccc(OC)c(OC)c3)c(F)cc2c1=O`, the Motility in the assay on Onchocerca lienalis [1], with Onchocerca lienalis [2], in the assay with Onchocerca lienalis [3] and in the assay on Onchocerca lienalis [4] was 100% throughout.

Regarding `CC(C)(C)c1ccc(O)c(CNC2CCCCC2)c1`, the Motility in the assay with Onchocerca lienalis [1], with Onchocerca lienalis [2], in the assay on Onchocerca lienalis [3] and in the assay with Onchocerca lienalis [4] was 100% throughout.

`O=[N+]([O-])c1ccc(C=NNc2nc3ccccc3[nH]2)cc1`: the Motility in the assay with Onchocerca lienalis [1], in the assay on Onchocerca lienalis [2], with Onchocerca lienalis [3] and with Onchocerca lienalis [4] was 100% each time.

For `COc1ccc(C2=C(c3ccc(OC)cc3)C3(c4ccccc4)C(=O)C2(c2ccccc2)C2C(=O)N(c4ccc(C)cc4)C(=O)C23)cc1` (stereo not given), the Motility in the assay with Onchocerca lienalis [1], in the assay on Onchocerca lienalis [2], in the assay on Onchocerca lienalis [3] and with Onchocerca lienalis [4] was 100% throughout.

For `CCOC(=O)c1c(NC(=O)c2ccccc2)sc2c(O)c(CN(CC)CC)ccc12`, the Motility in the assay with Onchocerca lienalis [1], in the assay with Onchocerca lienalis [2], in the assay on Onchocerca lienalis [3] and in the assay on Onchocerca lienalis [4] was 100% in each case.

Regarding `CCOC(=O)C1=C(c2ccccc2)N=c2sc(=Cc3cc(C)n(-c4ccc(F)cc4)c3C)c(=O)n2C1c1cccc(OC)c1OC` (stereo not given), the Motility in the assay on Onchocerca lienalis [1], with Onchocerca lienalis [2], in the assay with Onchocerca lienalis [3] and in the assay with Onchocerca lienalis [4] was 100% throughout.

For `CCC1(C)CC(CCNCc2ccccc2O)(c2ccc(C)cc2)CCO1` (stereo not given), the Motility with Onchocerca lienalis [1], in the assay with Onchocerca lienalis [2], in the assay with Onchocerca lienalis [3] and in the assay with Onchocerca lienalis [4] was 100% each time.

In the case of `Cc1cc(Nc2ccc(C)c(Cl)c2)n2nc(C(F)(F)F)nc2n1`, the Motility with Onchocerca lienalis [1], with Onchocerca lienalis [2], in the assay on Onchocerca lienalis [3] and in the assay on Onchocerca lienalis [4] was 100% throughout.

Take `Fc1ccc2[nH]c3c(NCCCN4CCOCC4)ncnc3c2c1`: the Motility in the assay on Onchocerca lienalis [1], in the assay on Onchocerca lienalis [2], in the assay on Onchocerca lienalis [3] and with Onchocerca lienalis [4] was 100% throughout.

Regarding `COc1ccc(C=C2SC(=N)N(c3ccccc3OC)C2=O)cc1`, the Motility with Onchocerca lienalis [1], in the assay on Onchocerca lienalis [2], in the assay on Onchocerca lienalis [3] and in the assay with Onchocerca lienalis [4] was 100% throughout.

`Cc1cccc(Nc2nc(N)c3ccccc3n2)c1.Cl`: the Motility in the assay with Onchocerca lienalis [1], in the assay on Onchocerca lienalis [2], in the assay on Onchocerca lienalis [3] and with Onchocerca lienalis [4] was 100% each time.

Turning to `CCn1c(CN2CCN(Cc3ccccc3)CC2)nc2cc(NC(=O)c3cccs3)ccc21`, the Motility in the assay with Onchocerca lienalis [1], with Onchocerca lienalis [2], in the assay with Onchocerca lienalis [3] and in the assay on Onchocerca lienalis [4] was 100% throughout.

In the case of `COc1ccccc1CNC(=O)CCn1c(=O)[nH]c2ccccc2c1=O`, the Motility in the assay with Onchocerca lienalis [1], in the assay on Onchocerca lienalis [2], in the assay with Onchocerca lienalis [3] and with Onchocerca lienalis [4] was 100% throughout.

For `COc1cc(OC)c(N(C)C(=O)c2cc3c(s2)-c2ccccc2S(=O)(=O)C3)cc1Cl`, the Motility in the assay on Onchocerca lienalis [1], with Onchocerca lienalis [2], in the assay with Onchocerca lienalis [3] and in the assay on Onchocerca lienalis [4] was 100% in each case.

Turning to `Cl.Oc1ccccc1CNCC12CC3CC(CC(C3)C1)C2`, the Motility in the assay on Onchocerca lienalis [1], in the assay on Onchocerca lienalis [2], with Onchocerca lienalis [3] and in the assay on Onchocerca lienalis [4] was 100% throughout.

Regarding `CNCCCNc1ccnc2cc(Cl)ccc12`, the Motility in the assay with Onchocerca lienalis [1], in the assay on Onchocerca lienalis [2], in the assay with Onchocerca lienalis [3] and in the assay with Onchocerca lienalis [4] was 100% in each case.

For the compound `COc1ccccc1CNC(=O)CCn1c(=O)[nH]c2ccsc2c1=O`, the Motility with Onchocerca lienalis [1], in the assay with Onchocerca lienalis [2], in the assay with Onchocerca lienalis [3] and with Onchocerca lienalis [4] was 100% each time.

For the compound `COc1ccc(Br)cc1C1Nc2ccc3ccccc3c2C2=C1C(=O)CC(c1ccccc1)C2` (stereo not given), the Motility in the assay with Onchocerca lienalis [1] is 66.66%; with Onchocerca lienalis [2], 100%; with Onchocerca lienalis [3], 100%; in the assay with Onchocerca lienalis [4] it was 100%.

With `Cc1cc(C=C2SC(=Nc3ccccc3)N(C3CCCC3)C2=O)c(C)n1-c1ccc(Cl)cc1`, the Motility with Onchocerca lienalis [1], in the assay with Onchocerca lienalis [2], in the assay with Onchocerca lienalis [3] and in the assay on Onchocerca lienalis [4] was 100% each time.

On to `CC1CCN(Cc2ccc(NC(=O)c3cc4ccc5cccnc5c4[nH]3)cc2)CC1`, for which the Motility in the assay with Onchocerca lienalis [1], with Onchocerca lienalis [2], with Onchocerca lienalis [3] and with Onchocerca lienalis [4] was 100% each time.

Turning to `CCc1ccc(Nc2cc(C)c3ccc(O)cc3n2)cc1.Cl`, the Motility in the assay on Onchocerca lienalis [1] was found to be 66.66%; in the assay with Onchocerca lienalis [2], 100%; with Onchocerca lienalis [3], 100%; in the assay on Onchocerca lienalis [4] it was 100%.

Turning to `CSc1ccccc1C(=O)Nc1nc(-c2ccccn2)cs1`, the Motility is given as 33.33% in the assay on Onchocerca lienalis [1], 100% in the assay on Onchocerca lienalis [2], 100% in the assay with Onchocerca lienalis [3] and 100% in the assay with Onchocerca lienalis [4].

Turning to `COc1ccc(C(C)=O)cc1N1C(=O)C2C(C1=O)C1(c3ccccc3)C(=O)C2(c2ccccc2)C(c2ccc(C)cc2)=C1c1ccc(C)cc1` (stereo not given), the Motility in the assay on Onchocerca lienalis [1], in the assay on Onchocerca lienalis [2], with Onchocerca lienalis [3] and in the assay with Onchocerca lienalis [4] was 100% each time.

For `CCCc1c(CC)c(=N)c2ccccc2n1C`, the Motility with Onchocerca lienalis [1], with Onchocerca lienalis [2], in the assay on Onchocerca lienalis [3] and in the assay on Onchocerca lienalis [4] was 100% throughout.

For the compound `CCOC(=O)c1cnc2c(C)cc(C)cc2c1Nc1ccc(OC)c(OC)c1`, the Motility in the assay on Onchocerca lienalis [1], in the assay on Onchocerca lienalis [2], in the assay with Onchocerca lienalis [3] and in the assay on Onchocerca lienalis [4] was 100% in each case.
